Source: ChEMBL document CHEMBL1157539, “Thousands of chemical starting points for antimalarial lead identification” (Nature, 2010)

These molecules were tested on Plasmodium falciparum (assay: GSK_TCMDC: Inhibition of Plasmodium falciparum 3D7 in whole erythrocytes, using parasite LDH activity as an index of growth.). Settings: Plasmodium falciparum, 3D7.
Assay type: functional, organism-based

SMILES	XC50 [nM]
Cc1ccc(C2CCN(CCCCNC(=O)c3ccc(NC(=O)c4ccc(Cl)cc4)cc3)CC2)c(OCC(F)(F)F)c1	284
O=[N+]([O-])c1ccc(-c2nc3cc(C4=NC5CCCCC5N4)ccc3[nH]2)cc1 (centres undefined)	691
O=C(c1cccc(-c2ccc(-c3nc4cc(F)ccc4[nH]3)s2)c1)N1CCCCC1CN1CCC(O)C1 (centres undefined)	715
COc1ccc(CN(C)C(=O)CCNS(=O)(=O)c2ccc3c(c2)OCCCO3)cc1F	656
O=C(Nc1ccc(C(=O)Oc2ccc(-c3ccccc3)cc2)cc1)N[C@@H](Cc1ccc(O)cc1)C(=O)NC1CCN(Cc2ccc(O)cc2)C1 (some centres undefined)	803
N=C(N)Nc1cccc(NC(=O)Nc2cccc(NC(=N)N)c2)c1	258
CCNC(=O)c1ccc2c(c1)c(C)c(C)n2Cc1ccc(F)cc1	767
CCN(CCCN1CCCCC1)c1cc(C)nc(Nc2cc(F)cc(F)c2)n1	570
O=C(NCCCc1ccccc1)c1ccc(O)c(-c2cc(Cl)cc(Cl)c2)c1	567
O=C(NCC1CCC(CNCCc2ccccc2)CC1)Nc1ccc(Cl)c(Cl)c1 (centres undefined)	745
COc1ccc(NC(=O)NC2CCN(CCCCCNC(=O)/C=C/c3ccc(Cl)c(Cl)c3)CC2)cc1	1010
O=C(/C=C/c1ccc(Cl)c(Cl)c1)NCCCCCN1CC[C@H](NC(=O)/C=C/c2ccccc2)C1	1000
COc1ccc2ncc(Cl)c([C@@H](O)CN3CCC(NCc4cc5c(cn4)OCCO5)CC3)c2c1	59.5
Cc1cccc2c(CON3C(N)=NC(N)=NC3(C)C)cccc12	3.2
COc1ccc(NC(=O)/C=C/c2ccccc2Cl)cc1OCCN1CCC(NCc2ccccc2)CC1	352
Cc1[nH]c2ccccc2c1C1=CCN(CCCCC2(C)C(=O)Nc3cccc(F)c32)CC1 (centres undefined)	364
COc1ccccc1C1CCN(CCCCNC(=O)c2ccc(/C=C/c3cc(Cl)cc(Cl)c3)cc2)CC1	718
O=C(NC1CCC(CN2CCC(c3c[nH]c4ccccc34)CC2)CC1)c1cc(-c2ccccc2Cl)oc1C(F)(F)F (centres undefined)	771
O=C(Nc1ccc2c(c1)CCC2)c1ccc(CN2CCCN(Cc3cccc(O)c3)CC2)cc1	894
COc1ccc2nc(C)cc(NC3Cc4ccccc4C3)c2c1	839
COc1ccc(CCn2c(=N)c(C(=O)NCc3ccc(C)cc3)cc3c(=O)n4ccccc4nc32)cc1	1130
COc1ccc(Nc2nccc(N3CCC(NC(=O)Nc4cccc(C(C)=O)c4)C3)n2)cc1 (centres undefined)	821
COc1ccc(-c2cccc(NC(=O)c3ccccc3)c2)cc1CN1CCCN(C)CC1	733
COc1ccc(Nc2c3ccc(Cl)cc3nc3ccc(OC)cc23)cc1	441
Cn1nc(-c2ccc(CN[C@@H]3CCc4ccc(O)cc43)cc2)c2cnc(NCCCN3CCCC3)nc21	797

SMILES	XC50 [nM]
Cc1ccc(CC(C)NCC(O)c2cccc(C(F)(F)F)c2)cc1F (centres undefined)	916
O=C(NC1CCN(CC2(c3ccccc3F)CCCC2)CC1)c1cc[nH]n1	997
CC1(C)CC(=O)c2c(O)cc(OCc3ccncc3)cc2O1	1040
CCCCc1ccc(-c2ccc(-c3c(C)[nH]c(C)c(Br)c3=O)cn2)cc1	57.8
COc1cccc(CCN(Cc2ccccc2-c2ccc(CNC3CC(C)(C)NC(C)(C)C3)cc2)C(=O)NC2CCCCC2)c1	932
CCOc1cc(C(=O)N[C@@H](Cc2ccccc2)[C@H](O)CNCc2cccc(OC)c2)cc(N2CCCCS2(=O)=O)c1	721
COc1cccc(-c2ccc(C(=O)NC3CCN(Cc4ccc(C(C)(C)C)cc4)CC3)s2)c1	1600
CC(C)(C)SCC(O)Cn1c2ccc(Br)cc2c2cc(Br)ccc21 (centres undefined)	1000
CNC(=O)c1cc(S(=O)(=O)Nc2ccc(OC)cc2)cs1	1130
CCn1cnc2c(Nc3cccc([N+](=O)[O-])c3)nc(N3CCC(N4CCCCC4)CC3)nc21	954
COc1ccc(S(=O)(=O)N2CCC(NS(=O)(=O)c3ccc(F)cc3)CC2)cc1	1330
COc1ccc(C2CCN(CCCCNC(=O)c3ccc(NC(=O)c4ccc(Cl)cc4)cc3)CC2)c(OC)c1	570
CN1CCN(c2ccc3[nH]c(-c4ccc5[nH]c(-c6ccc([N+](=O)[O-])c(N)c6)nc5c4)nc3c2)CC1	105
CCCN(Cc1ccc(OCC)cc1)Cc1cc(=O)c2cc(Cl)ccc2[nH]1	1260
CCC(CC)(Cc1ccccc1)NC(=O)[C@H](CC1CCCCC1)Nc1ccc(C#N)c2ccccc12	634
c1ccc2c(NCCCCCCCCCNc3c4ccccc4nc4ccccc34)c3ccccc3nc2c1	298
Clc1cccc(CNC2CCN(CC3CCCCC3)CC2)c1	912
Cc1ccc2cc(C3NC(=O)c4ccccc4N3)c(Cl)nc2c1 (centres undefined)	945
COc1ccc(CN2CCN(Cc3cc(Cl)ccc3O)CC2CCO)c(C)c1C (centres undefined)	1490
CN(C)Cc1cccc(-c2ccc(NC(=O)c3ccc4c(=O)n(C5CCCCC5)cnc4c3)cc2)c1	744
CN1CCN(c2cccc(NC(=O)c3ccc(-c4ccc(C#N)cc4)cc3)c2)CC1	1260
O=C(NC1CCCC1)c1ccc(N2CCC(NCc3cc4cc(Cl)ccc4[nH]3)CC2)cc1	1220
CC1(CCCCN2CCC(c3c[nH]c4cnccc34)CC2)C(=O)Nc2cccc(Cl)c21 (centres undefined)	868
Cc1cc(C)c(NC(=O)NC2CCN(CCCCCNC(=O)/C=C/c3ccc(Cl)c(Cl)c3)C2)c(C)c1 (centres undefined)	186
COc1ccc(-c2cccc(CNCc3ccc(F)cc3)c2)cc1S(=O)(=O)NCCN1CCCC1	1850

SMILES	XC50 [nM]
CC(=O)Oc1c(Cl)c(C)nc(C)c1-c1ccc(Oc2ccc(Cl)cc2)cc1	31.5
O=C(Nc1cccc(CN2CCCN(Cc3ccc(O)cc3)CC2)c1)c1cccc(C(F)(F)F)c1	314
O=C(NC1CCN(CC2(c3ccc(Cl)cc3)CCCCC2)CC1)c1cc[nH]n1	84
Cc1cc(=O)[nH]c(-n2nc(C)cc2NC(=O)CC(c2ccccc2)c2ccccc2)n1	1100
O=c1cc(NCCCNC2CCOc3c(I)cc(Cl)cc32)[nH]c2ccccc12 (centres undefined)	832
Clc1ccc(Nc2nc(Nc3ccc(Cl)c(Cl)c3)nc(Sc3nc4ccccc4[nH]3)n2)cc1Cl	490
O=C(C=CC(=O)N1CCCCC1)NCc1ccccc1	732
Cc1cccc2nc(-c3cccc(-c4ccc(NC(=O)C(=O)c5cccn5C)cc4)c3)[nH]c12	375
COc1cccc2cc(C(=O)N[C@@H](CC(C)C)C(=O)N[C@H](C=NN3CCOC3=O)CC(C)C)oc12	741
Cn1nc(-c2ccc(NC(=O)Nc3ccc4ccccc4c3)c(F)c2)c2cnc(NCCN3CCOCC3)nc21	1020
CC(C)(C)C1CCC(C(=O)c2ccc3ccccc3c2O)CC1 (centres undefined)	751
CCCCCC(=O)NCC(NCCCNc1cc(=O)c2ccccc2[nH]1)c1cc(Br)cc(Br)c1 (centres undefined)	652
CC(CN(C)C)C(=O)Nc1ccc(-c2csc(-c3nc4ccccc4[nH]3)c2)cc1 (centres undefined)	1320
Cc1noc(=O)c2ccc(NC(=O)C(O)(CSc3ccccc3)CC(C)C)cc12 (centres undefined)	722
O=C(/C=C/c1ccc(Cl)c(Cl)c1)NCCCCCN1CCC(NC(=O)NC2CCCCCC2)CC1	464
COc1ccc(-c2nc(NC(=O)CS(=O)(=O)c3ccccc3)sc2C)cc1	596
CCCCN(CCCC)CCCN(CCCN(CCCC)CCCC)c1cc(C)nc(Nc2ccc3cc(Br)ccc3c2)n1	320
Oc1ccc2[nH]cc(C3CCN(CCCNCc4ccc(-c5ccccc5)cc4)CC3)c2c1	725
O=C(/C=C/c1ccc(Cl)c(Cl)c1)NCCCCCN1CCCN(C(=S)Nc2ccc(Cl)cc2)CC1	1130
COc1ccc2cc(C(c3nnnn3CC3CCCO3)N3CCc4ccccc43)c(=O)[nH]c2c1 (centres undefined)	795
Cc1c(NC(=O)COc2ccc(Cl)cc2C(=O)c2cc(F)cc(C(F)(F)F)c2)ccc2ncsc12	1020
CCCCCCN(CCCCCC)CC(O)c1c(OC)ccc2ccccc12 (centres undefined)	567
COc1ccc(CNCc2ccsc2)cc1-c1ccc(OC)c(S(=O)(=O)NCCN2CCCC2)c1	917
Cn1ccnc1CNC(=O)c1ccc(-c2ccc(-c3nc4cc(C(F)(F)F)ccc4[nH]3)s2)cc1	698
O=C(NCc1cccs1)[C@H](Cc1ccccc1)Nc1ccnc(NCCc2ccc(F)cc2)n1	1450

SMILES	XC50 [nM]
CCn1c(-c2nonc2N)nc2c(-c3cc4ccccc4s3)ncc(C(=O)N3CCC(N)C3)c21 (centres undefined)	871
COc1ccc(S(=O)(=O)N(CCCN2CCN(C)CC2)Cc2csc(-c3ccc(CNCc4ccccc4)cc3)n2)cc1	949
c1cc(-c2ccc(CNCc3ccsc3)cc2)cc(-c2nc3ccccc3[nH]2)c1	156
COc1ccc(C(=O)CCC(=O)N(Cc2ccc(-c3ccc(CNCCc4ccc(S(C)(=O)=O)cc4)cn3)cc2)C(C)CN(C)C)cc1F (centres undefined)	650
c1ccc(-c2nc3ccccc3[nH]2)c(Nc2ccnc3cc(-c4nccs4)ccc23)c1	740
Cc1cc(N2CCCC2)nc(Nc2ccc(NC(=O)CC(C)C)cc2)n1	841
COC(=O)c1ccc(CC(C)NCC(O)c2ccccc2Cl)cc1 (centres undefined)	1010
Cc1nc(NCCCn2ccnc2)cc(-c2cncc(-c3ccc(OC(F)(F)F)cc3)c2)n1	616
Nc1nc(N)c2c(Cl)c(N3CCOCC3)ccc2n1	76.9
CCN(CC)CCCC(C)Nc1c(-c2ccc(C)cc2)cnc2ccccc12 (centres undefined)	200
Cc1cc(O)c(-c2ccc(Sc3ccc(Cl)cc3)cc2)c(C)n1	969
Clc1ccc2c(NCCNc3ccnc4cc(Cl)ccc34)ccnc2c1	396
Cc1ccc(NC(=O)NC2CCN(CCCCCNC(=O)C3CC3c3ccc(Cl)c(Cl)c3)CC2)cc1 (centres undefined)	540
O=C(/C=C/c1ccc(Cl)c(Cl)c1)NCCCCCN1CCCN(C(=S)Nc2cccc(Cl)c2)CC1	1050
COc1ccc2c(=O)c3ccc(OC)cc3[nH]c2c1	810
Cc1cccc(CNc2nc(C)cc(NCCC(=O)Nc3ccccc3)n2)c1	1050
Oc1ccc(Cl)cc1-c1cc(C(F)(F)F)nc(-c2ccccc2)n1	753
CN1CCC(C(=O)Nc2ccc(-c3cccc(-c4nc5cc(F)ccc5[nH]4)c3)cc2)CC1	792
CC(C)CNCc1ccc(-c2ccc(CNC3CCN(Cc4ccccc4)CC3)cc2)cc1	558
CC1(C)NC(N)=NC(=N)N1OCCCSc1ccccc1	3.2
CS(=O)(=O)c1ccc(-c2cncc(Cl)n2)cc1	770
CC(NC(=O)c1ccc(O)c(-c2ccc(Cl)c(Cl)c2)c1)C(=O)NC1CCCCC1 (centres undefined)	844
CC(C)Cc1cn(-c2nc(C(=N)N)cs2)c2cc(Cl)ccc12	154
Cc1cccc(C)c1CNc1cccc(-c2nc(C)c(C)[nH]2)c1	883
